Holding throughout (assay type): cell-based
In one assay the test system is M. tuberculosis PZA-R. As to conditions: pirazinamide-resistant mycobacteria.
For another assay, the system named is M. tuberculosis INH-R. Put plainly: microbe, parasite or virus in culture. As to conditions: for M. tuberculosis INH-R MIC: isoniazid-resistant mycobacteria; for MIC: Mycobacterium tuberculosis, read-out: M. tuberculosis INH-R MIC.
The next assay concerns M. tuberculosis RMP-R. The experiment in a line: microbe, parasite or virus in culture. As to conditions: for M. tuberculosis RMP-R (Rif-R) MIC: rifampicin-resistant mycobacteria; for MIC: Mycobacterium tuberculosis, read-out: M. tuberculosis RMP-R (Rif-R) MIC.
Another assay relates to M. tuberculosis SM-R. As to conditions: streptomycin-resistant mycobacteria.

Structures are written as SMILES. Converted amounts (≈) assume the structure as drawn.

For `CSc1ccc(-c2cc(CN3CCSCC3)c(C)n2-c2ccc(C)cc2)cc1` [Compound 3b], the “PZA-R MIC” value in the assay on M. tuberculosis PZA-R stood at 0.5 µg/mL. Moreover, the “M. tuberculosis INH-R MIC” value in the assay with M. tuberculosis INH-R worked out at 16 µg/mL. For the same compound, the “M. tuberculosis RMP-R (Rif-R) MIC” value in the assay on M. tuberculosis RMP-R is 0.25 µg/mL. Also, the “SM-R MIC” value in the assay on M. tuberculosis SM-R was 0.25 µg/mL.
With `[H]/N=C(/N)N[C@H]1[C@H](O)[C@@H](O)[C@H](O[C@@H]2O[C@@H](C)[C@](O)(C=O)[C@H]2O[C@@H]2O[C@@H](CO)[C@H](O)[C@@H](O)[C@@H]2NC)[C@@H](N/C(N)=N\[H])[C@@H]1O` [Streptomycin, SM, Streptomycin, reference compound], the MIC with M. tuberculosis INH-R and with M. tuberculosis RMP-R was 0.5 µg/mL (≈ 0.86 µM) throughout.
With `CSc1ccc(-c2cc(CN3CCN(C)CC3)c(C)n2-c2ccc(F)cc2)cc1` [Compound 3f], the “PZA-R MIC” value with M. tuberculosis PZA-R was 2 µg/mL. Also, the “M. tuberculosis INH-R MIC” value in the assay on M. tuberculosis INH-R is 8 µg/mL. For the same compound, in the assay with M. tuberculosis RMP-R, the “M. tuberculosis RMP-R (Rif-R) MIC” value is 2 µg/mL. In addition, in the assay with M. tuberculosis SM-R, the “SM-R MIC” value was 1 µg/mL.
In the case of `NNC(=O)c1ccncc1` [Isoniazid, INH, Isoniazid, reference compound], the MIC with M. tuberculosis INH-R is above 64 µg/mL; in the assay on M. tuberculosis RMP-R it was 0.25 µg/mL (≈ 1.82 µM).
Turning to `CCc1ccc(-n2c(-c3ccc(SC)cc3)cc(CN3CCSCC3)c2C)cc1` [Compound 3c], the “PZA-R MIC” value in the assay on M. tuberculosis PZA-R was 0.25 µg/mL. Besides, the “M. tuberculosis INH-R MIC” value with M. tuberculosis INH-R is 16 µg/mL. Moreover, the “M. tuberculosis RMP-R (Rif-R) MIC” value with M. tuberculosis RMP-R worked out at 0.25 µg/mL. Besides, the “SM-R MIC” value in the assay with M. tuberculosis SM-R is 0.25 µg/mL.
For `CO[C@H]1/C=C/O[C@@]2(C)Oc3c(C)c(O)c4c(O)c(c(/C=N/N5CCN(C)CC5)c(O)c4c3C2=O)NC(=O)/C(C)=C\C=C\[C@H](C)[C@H](O)[C@@H](C)[C@@H](O)[C@@H](C)[C@H](OC(C)=O)[C@@H]1C` [Rifampicin, RIF, Rifampicin], the MIC in the assay on M. tuberculosis INH-R was 0.8 µg/mL (≈ 0.972 µM); in the assay with M. tuberculosis RMP-R it was above 64 µg/mL.
Take `CSc1ccc(-c2cc(CN3CCSCC3)c(C)n2-c2ccc(F)cc2)cc1` [Compound 3a, N-(4-fluorophenyl)-2-methyl-3-thiomorpholinomethyl-5-(4-methylsulfanylphenyl)pyrrole]: the MIC in the assay with M. tuberculosis INH-R was above 16 µg/mL; in the assay on M. tuberculosis RMP-R it was 0.25 µg/mL (≈ 0.606 µM). Also, in the assay with M. tuberculosis INH-R, the “M. tuberculosis INH-R MIC” value is above 16 µg/mL.
In the case of `CSc1ccc(-c2cc(CN3CCSCC3)c(C)n2-c2ccc(C(C)C)cc2)cc1` [Compound 3e], the “PZA-R MIC” value in the assay on M. tuberculosis PZA-R was 1 µg/mL. Besides, the “M. tuberculosis INH-R MIC” value with M. tuberculosis INH-R was determined as 16 µg/mL. Moreover, the “M. tuberculosis RMP-R (Rif-R) MIC” value in the assay on M. tuberculosis RMP-R came out at 1 µg/mL. Besides, in the assay on M. tuberculosis SM-R, the “SM-R MIC” value came to 0.125 µg/mL.
For `CSc1ccc(-c2cc(CN3CCOCC3)c(C)n2-c2ccc(F)cc2)cc1` [Compound 3h], the “PZA-R MIC” value with M. tuberculosis PZA-R is 0.5 µg/mL. In the assay with M. tuberculosis INH-R, the “M. tuberculosis INH-R MIC” value was above 16 µg/mL. Also, the “M. tuberculosis RMP-R (Rif-R) MIC” value with M. tuberculosis RMP-R is 2 µg/mL. Also, in the assay on M. tuberculosis SM-R, the “SM-R MIC” value is 0.25 µg/mL.
As to `CCCc1ccc(-n2c(-c3ccc(SC)cc3)cc(CN3CCSCC3)c2C)cc1` [Compound 3d], in the assay with M. tuberculosis PZA-R, the “PZA-R MIC” value amounted to 0.5 µg/mL. Further, the “M. tuberculosis INH-R MIC” value in the assay on M. tuberculosis INH-R was 8 µg/mL. The “M. tuberculosis RMP-R (Rif-R) MIC” value in the assay on M. tuberculosis RMP-R is 0.5 µg/mL. Further, the “SM-R MIC” value in the assay on M. tuberculosis SM-R worked out at 0.25 µg/mL.

For the origin of these results see patent US8304410B2, “Pyrrole compounds as inhibitors of mycobacteria, synthesis thereof and intermediates thereto” (priority 2007, dated 2012).
